Experimental data published in paper PMC9323422 (Angewandte Chemie (International Ed. in English), 2022).

Legend:
[1] = Determination of partition coefficients DCM/water; format: physicochemical; conditions: 24 h, room temperature
Recombinant human PTP1B = molecular target: T1, Recombinant human PTP1B (Homo sapiens, UniProt P18031); format: biochemical
T1 sequence (P18031 1-435): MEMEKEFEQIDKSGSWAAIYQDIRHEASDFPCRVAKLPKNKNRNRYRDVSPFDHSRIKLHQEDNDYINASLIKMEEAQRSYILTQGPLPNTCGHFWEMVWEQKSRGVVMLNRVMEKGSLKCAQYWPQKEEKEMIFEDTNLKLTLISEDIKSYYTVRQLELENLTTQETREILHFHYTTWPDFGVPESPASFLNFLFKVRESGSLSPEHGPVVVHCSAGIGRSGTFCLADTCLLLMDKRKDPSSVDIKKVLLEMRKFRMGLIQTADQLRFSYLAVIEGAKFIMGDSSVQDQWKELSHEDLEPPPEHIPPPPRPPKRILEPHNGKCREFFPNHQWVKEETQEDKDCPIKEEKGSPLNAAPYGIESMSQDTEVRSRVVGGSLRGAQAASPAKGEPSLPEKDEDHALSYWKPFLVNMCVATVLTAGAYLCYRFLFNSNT

[2] = pH 2
Irradiation experiment = format: physicochemical; conditions: 365 nm, 2 h, room temperature, isopropanol/water (70 : 30)
PTP1B = conditions: cited from earlier work

Row | SMILES | Percent compound in DCM (organic phase) [1] [%] | Ki (Recombinant human PTP1B) [µM] | increase of affinity to PTP1B relative to phosphonate amino acid 1 (Recombinant human PTP1B) [fold] | stability of the pentafluorophosphate anion [2] | photostability on irradiation (Irradiation experiment) | affinity, inhibition of PTP1B phosphatase activity (PTP1B)
1 | CNC(=O)C(Cc1ccc(C(F)(F)[P-](F)(F)(F)(F)F)cc1)NC(C)=O (stereo not drawn) [Compound 10] | 16 |  |  |  |  | 
2 | NC(Cc1ccc(C(F)(F)[P-](F)(F)(F)(F)F)cc1)C(=O)O (stereo not drawn) [Compound 3, 4‐pentafluoro‐phosphato‐difluoromethyl‐phenylalanine] |  | 61 ± 8 | 25 | stable |  | 
3 | NC(Cc1ccc(C(=O)[P-](F)(F)(F)(F)F)cc1)C(=O)O (stereo not drawn) [Compound 12, 4‐(pentafluorophosphato‐carbonyl)‐phenylalanine] |  | 52 ± 7 | 30 |  | photoconversion of the PF5 residue | 
4 | FC(F)(c1ccccc1)[P-](F)(F)(F)(F)F [Compound 2] | 37 |  |  |  |  | low, millimolar affinity
